The source of these data is ChEMBL document CHEMBL1126877, “Synthesis and anticonvulsant activities of alpha-heterocyclic alpha-acetamido-N-benzylacetamide derivatives” (J Med Chem, 1993).

The ED50 is the dose that gives a 50% effect, or the effect in half of the subjects. As usually defined, the TD50 is the 50% point of the dose-response relation for the toxic effect studied.

Where only a bound is given, the exact number is not on record here.

Data set [1] can be described thus: Protective index (TD50/ED50). Type of data set: functional.
For data set [2], the species on record is Mus musculus. The experiment in a line: Effective dose required for maximal electroshock (MES)-induced seizures in mice. The format is functional. Background: Protection in the maximal electroshock model is a classic sign of anticonvulsant action.
Data set [3] in a line: Neurologic toxicity determined using horizontal screen test in mice in experiment 1. Type of data set: organism-based. Conditions: mouse, in vivo.
The nature of data set [4]: Neurologic toxicity determined using horizontal screen test in mice in experiment 2. Type of data set: organism-based. Conditions: mouse, in vivo.
Data set [5] in a line: Neurologic toxicity determined using rotarod test in mice. Type of data set: organism-based. Conditions: mouse, in vivo.
Data set [6] can be described thus: (§1) Neurologic toxicity determined using horizontal screen test in mice. The format is organism-based. The following applies: mouse, in vivo.
Data set [7] is filed under the species Mus musculus. The data set is described as follows: Effective dose required for maximal electroshock (MES)-induced seizures in mice in experiment 2. Type of data set: functional.
For data set [8], the species on record is Mus musculus. The experiment in a line: Effective dose required for maximal electroshock (MES)-induced seizures in mice in experiment 1. Type of data set: functional.
Data set [9] is filed under the species Mus musculus. The data set is described as §1. The format is organism-based. Conditions: in vivo.

Turning to `CC(=O)N[C@@H](C(=O)NCc1ccccc1)c1ccco1`, the PI in [1] was 7.2. Also, the ED50 in the data set listed under Mus musculus [2] (Mus musculus, read-out: ED50) came to 3.3 mg/kg. For `CC(=O)NC(C(=O)NCc1ccccc1)c1cccs1` (centres undefined), the TD50 in data set [3] was over 30 mg/kg; in data set [4], under 100 mg/kg. Regarding `CC(=O)NC(C(=O)NCc1ccccc1)c1ncco1` (centres undefined), the PI in data set [1] is 3.7. This compound came in with a TD50 in data set [5] of 38.6 mg/kg. In addition, the median effective dose (ED50) in the data set listed under Mus musculus [2] (Mus musculus, read-out: ED50) worked out at 10.4 mg/kg.

With `CC(=O)NC(C(=O)NCc1ccccc1)n1cccn1` (centres undefined), the ED50 in the data set listed under Mus musculus [2] (Mus musculus, read-out: ED50) is 16.5 mg/kg. In data set [6], `CC(=O)NC(C(=O)NCc1ccccc1)c1ccccc1` (centres undefined) came in with a TD50 of over 40 mg/kg. Turning to `CC(=O)NC(C(=O)NCc1ccccc1)c1ncon1` (centres undefined), the ED50 is under 300 mg/kg in the data set filed under Mus musculus [7] and over 100 mg/kg in the data set listed under Mus musculus [8]. For the compound `CC(=O)NC(C(=O)NCc1ccccc1)C1CCCO1` (centres undefined), the median effective dose (ED50) in the data set listed under Mus musculus [2] (Mus musculus, read-out: ED50) was 89.8 mg/kg. The same measure, in the same setting: in the case of `CC(=O)N[C@H](C(=O)NCc1ccc(C)cc1)c1ccco1` it was 43.6 mg/kg; in that of `CC(=O)NC(C(=O)NCc1ccccc1)n1cnnn1` (centres undefined), over 300 mg/kg. `CC(=O)NC(C(=O)NCc1ccccc1)c1ccc[nH]1` (centres undefined): the TD50 was over 30 mg/kg in data set [3] and under 100 mg/kg in data set [4]. As to `CC(=O)NC(C(=O)NCc1ccc(F)cc1)c1ccco1` (centres undefined), the PI in data set [1] is 11.3. Take `CC(=O)NC(C)(C(=O)NCc1ccccc1)c1ccco1` (centres undefined): the ED50 in the data set filed under Mus musculus [2] (Mus musculus, read-out: ED50) was over 300 mg/kg.

`CC(=O)NC(C(=O)NNc1ccccn1)c1ccco1` (centres undefined): in the data set listed under Mus musculus [2] (Mus musculus, read-out: ED50), the ED50 is over 100 mg/kg. For the compound `CC(=O)N[C@H](C(=O)NCc1ccccc1)c1ccco1` (stereo in doubt; 4) [listing 1 of 2 here], the PI in [1] was 3.9.

`CC(=O)NC(C(=O)NCc1ccccc1)c1c[nH]cn1` (centres undefined): the ED50 in the data set listed under Mus musculus [2] (Mus musculus, read-out: ED50) is over 100 mg/kg.

As to `CC(=O)NC(C(=O)NCc1ccccc1)c1nnn[nH]1` (centres undefined), the median effective dose (ED50) in the data set listed under Mus musculus [7] was under 100 mg/kg; in the data set listed under Mus musculus [8], over 30 mg/kg. On to `CC(=O)NC(C(=O)NCc1cc[n+]([O-])cc1)c1ccco1` (centres undefined), for which the ED50 in the data set filed under Mus musculus [2] (Mus musculus, read-out: ED50) is over 100 mg/kg. Take `CC(=O)N[C@H](C(=O)NCc1ccccc1)c1ccco1` (stereo in doubt; 4) [listing 2 of 2 here]: in the data set listed under Mus musculus [9], the TD50 is listed as ~ 40 mg kg-1. This compound also had a median effective dose (ED50) in the data set listed under Mus musculus [2] of 10.3 mg/kg.

In turn, `CC(=O)NC(C(=O)NCc1ccccc1)c1ccsc1` (centres undefined) showed a TD50 in data set [6] of over 100 mg/kg. In the case of `C/C(S)=N\C(C(=O)NCc1ccccc1)c1ccco1` (centres undefined), the median effective dose (ED50) in the data set listed under Mus musculus [2] (Mus musculus, read-out: ED50) worked out at 18.4 mg/kg. With `CC(=O)N[C@H](C(=O)NCc1ccccc1)c1ccco1` (stereo in doubt; (S)-4), the TD50 in the data set listed under Mus musculus [9] was over 200 mg/kg. Also, the median effective dose (ED50) in the data set filed under Mus musculus [2] is over 25 mg/kg. In the case of `CC(=O)NC(C(=O)NCc1ccccc1)c1ncc[nH]1` (centres undefined), in the data set filed under Mus musculus [2] (Mus musculus, read-out: ED50), the 50% effective dose (ED50) is over 100 mg/kg. In the case of `CC(=O)NC(C(=O)NCc1ccccc1)n1cncn1` (centres undefined), the median effective dose (ED50) was under 100 mg/kg in the data set listed under Mus musculus [7] and over 30 mg/kg in the data set listed under Mus musculus [8]. As to `CC(=O)NC(C(=O)NCc1ccccc1)n1ccnc1` (centres undefined), the ED50 in the data set filed under Mus musculus [2] (Mus musculus, read-out: ED50) is over 100 mg/kg. Take `CC(=O)NC(C(=O)NCc1ccccc1)c1nccs1` (centres undefined): the PI in data set [1] was determined as 5.7. Further, the TD50 in data set [5] turned out to be 69.1 mg/kg. Besides, the ED50 in the data set listed under Mus musculus [2] (Mus musculus, read-out: ED50) turned out to be 12.1 mg/kg. On to `CC(=O)NC(C(=O)NCc1ccc[n+]([O-])c1)c1ccco1` (centres undefined), for which the ED50 in the data set listed under Mus musculus [2] (Mus musculus, read-out: ED50) was about 30 mg/kg. Turning to `CC(=O)N[C@H](C(=O)NCc1ccc(C(F)(F)F)cc1)c1ccco1`, in the data set filed under Mus musculus [2] (Mus musculus, read-out: ED50), the 50% effective dose (ED50) was 22.8 mg/kg. In the case of `CC(=O)NC(C(=O)NCc1ccncc1)c1ccco1` (centres undefined), the 50% effective dose (ED50) in the data set filed under Mus musculus [2] (Mus musculus, read-out: ED50) is over 100 mg/kg. Turning to `C/C(S)=N/C(/C(S)=N/Cc1ccccc1)c1ccco1` (centres undefined), the ED50 in the data set filed under Mus musculus [2] (Mus musculus, read-out: ED50) is over 100 mg/kg.

Turning to `CC(=O)NC(C(=O)NCc1cccnc1)c1ccco1` (centres undefined), the ED50 in the data set listed under Mus musculus [2] (Mus musculus, read-out: ED50) was about 30 mg/kg. With `CC(=O)N[C@@H](C(=O)NCc1ccc(F)cc1)c1ccco1`, in data set [1], the PI was determined as 4.1. The same compound came in with a TD50 in [6] of 14.4 mg/kg. In addition, the ED50 in the data set filed under Mus musculus [2] (Mus musculus, read-out: ED50) was determined as 3.5 mg/kg. In data set [1], `CC(=O)NC(C(=O)NCc1ccccc1)c1ccco1` (centres undefined) gave a PI of 3.9. Moreover, the TD50 in data set [6] is about 40 mg/kg. As to `CC(=O)NC(C(=O)NCc1ccccc1)c1nc[nH]n1` (centres undefined), the ED50 in the data set listed under Mus musculus [2] (Mus musculus, read-out: ED50) was over 100 mg/kg. For `CC(=O)NC(C(=O)NCc1ccccc1)n1cccc1` (centres undefined), in the data set listed under Mus musculus [2] (Mus musculus, read-out: ED50), the ED50 is 80.2 mg/kg.
